{"source": "PubChem BioAssay (NCI)", "assay_in_all_cases": "NCI anticancer screen, dose series, 48 h", "key": {"ACHN renal": {"test_system": "ACHN renal"}, "COLO 205 colon": {"test_system": "COLO 205 colon"}, "A549 NSCLC": {"test_system": "A549 NSCLC"}, "EKVX NSCLC": {"test_system": "EKVX NSCLC"}, "CCRF-CEM leukemia": {"test_system": "CCRF-CEM leukemia"}, "HT29 colon": {"test_system": "HT29 colon"}, "SF-295 CNS": {"test_system": "SF-295 CNS"}, "T-47D breast": {"test_system": "T-47D breast"}, "M14 melanoma": {"test_system": "M14 melanoma"}, "MALME-3M melanoma": {"test_system": "MALME-3M melanoma"}, "MDA-MB-231 breast": {"test_system": "MDA-MB-231 breast"}, "SNB-19 CNS": {"test_system": "SNB-19 CNS"}, "NCI-H23 lung": {"test_system": "NCI-H23 lung"}, "HOP-92 NSCLC": {"test_system": "HOP-92 NSCLC"}, "HL-60(TB) leukemia": {"test_system": "HL-60(TB) leukemia"}, "PC-3 prostate": {"test_system": "PC-3 prostate"}, "SF-539 CNS": {"test_system": "SF-539 CNS"}, "RXF 393 renal": {"test_system": "RXF 393 renal"}, "SF-268 CNS": {"test_system": "SF-268 CNS"}, "SK-OV-3 ovarian": {"test_system": "SK-OV-3 ovarian"}, "NCI/ADR-RES ovarian": {"test_system": "NCI/ADR-RES ovarian"}, "UO-31 renal": {"test_system": "UO-31 renal"}, "NCI-H460 lung": {"test_system": "NCI-H460 lung"}, "HS 578T breast": {"test_system": "HS 578T breast"}, "MCF7 breast": {"test_system": "MCF7 breast"}, "MDA-MB-435": {"test_system": "MDA-MB-435"}, "K-562 leukemia": {"test_system": "K-562 leukemia"}, "TK-10 renal": {"test_system": "TK-10 renal"}, "SNB-75 CNS": {"test_system": "SNB-75 CNS"}, "MDA-N": {"test_system": "MDA-N"}, "CAKI-1 renal": {"test_system": "CAKI-1 renal"}, "NCI-H522 lung": {"test_system": "NCI-H522 lung"}, "A498 renal": {"test_system": "A498 renal"}, "OVCAR-5 ovarian": {"test_system": "OVCAR-5 ovarian"}, "BT-549 breast": {"test_system": "BT-549 breast"}, "RPMI-8226 leukemia": {"test_system": "RPMI-8226 leukemia"}, "SR leukemia": {"test_system": "SR leukemia"}, "OVCAR-3 ovarian": {"test_system": "OVCAR-3 ovarian"}, "SK-MEL-2 melanoma": {"test_system": "SK-MEL-2 melanoma"}, "SW-620 colon": {"test_system": "SW-620 colon"}, "HOP-62 NSCLC": {"test_system": "HOP-62 NSCLC"}, "SK-MEL-28 melanoma": {"test_system": "SK-MEL-28 melanoma"}, "786-0 renal": {"test_system": "786-0 renal"}, "HCC-2998 colon": {"test_system": "HCC-2998 colon"}, "HCT-15 colon": {"test_system": "HCT-15 colon"}, "SN12C renal": {"test_system": "SN12C renal"}, "HCT-116 colon": {"test_system": "HCT-116 colon"}, "UACC-257 melanoma": {"test_system": "UACC-257 melanoma"}, "OVCAR-4 ovarian": {"test_system": "OVCAR-4 ovarian"}, "KM12 colon": {"test_system": "KM12 colon"}, "LOX IMVI melanoma": {"test_system": "LOX IMVI melanoma"}, "UACC-62 melanoma": {"test_system": "UACC-62 melanoma"}, "SK-MEL-5 melanoma": {"test_system": "SK-MEL-5 melanoma"}, "DU-145 prostate": {"test_system": "DU-145 prostate"}, "IGROV1 ovarian": {"test_system": "IGROV1 ovarian"}, "U251 CNS": {"test_system": "U251 CNS"}}, "note": "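Values below derive from 48-hour exposures of cells grown in 96-well plates, with endpoints linearly interpolated between the two concentrations bracketing the appropriate inhibition level. TGI: total growth inhibition.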", "data": [{"smiles": "Nc1ccc2nc3ccc(N)cc3[n+](-c3ccccc3)c2c1", "values": [{"measurement": "TGI", "setting": "ACHN renal", "value": "> 100", "unit": "µM"}, {"measurement": "TGI", "setting": "COLO 205 colon", "value": 26.9, "unit": "µM"}, {"measurement": "TGI", "setting": "A549 NSCLC", "value": "> 100", "unit": "µM"}, {"measurement": "TGI", "setting": "EKVX NSCLC", "value": "> 100", "unit": "µM"}, {"measurement": "TGI", "setting": "CCRF-CEM leukemia", "value": "> 100", "unit": "µM"}, {"measurement": "TGI", "setting": "HT29 colon", "value": "> 100", "unit": "µM"}, {"measurement": "TGI", "setting": "SF-295 CNS", "value": "> 100", "unit": "µM"}, {"measurement": "TGI", "setting": "T-47D breast", "value": "> 100", "unit": "µM"}, {"measurement": "TGI", "setting": "M14 melanoma", "value": "> 100", "unit": "µM"}, {"measurement": "TGI", "setting": "MALME-3M melanoma", "value": 74.7, "unit": "µM"}, {"measurement": "TGI", "setting": "MDA-MB-231 breast", "value": "> 100", "unit": "µM"}, {"measurement": "TGI", "setting": "SNB-19 CNS", "value": "> 100", "unit": "µM"}, {"measurement": "TGI", "setting": "NCI-H23 lung", "value": "> 100", "unit": "µM"}, {"measurement": "TGI", "setting": "HOP-92 NSCLC", "value": "> 100", "unit": "µM"}, {"measurement": "TGI", "setting": "HL-60(TB) leukemia", "value": "> 100", "unit": "µM"}, {"measurement": "TGI", "setting": "PC-3 prostate", "value": "> 100", "unit": "µM"}, {"measurement": "TGI", "setting": "SF-539 CNS", "value": "> 100", "unit": "µM"}, {"measurement": "TGI", "setting": "RXF 393 renal", "value": "> 100", "unit": "µM"}, {"measurement": "TGI", "setting": "SF-268 CNS", "value": "> 100", "unit": "µM"}, {"measurement": "TGI", "setting": "SK-OV-3 ovarian", "value": "> 100", "unit": "µM"}, {"measurement": "TGI", "setting": "NCI/ADR-RES ovarian", "value": "> 100", "unit": "µM"}, {"measurement": "TGI", "setting": "UO-31 renal", "value": "> 100", "unit": "µM"}, {"measurement": "TGI", "setting": "NCI-H460 lung", "value": "> 100", "unit": "µM"}, {"measurement": "TGI", "setting": "HS 578T breast", "value": "> 100", "unit": "µM"}, {"measurement": "TGI", "setting": "MCF7 breast", "value": "> 100", "unit": "µM"}, {"measurement": "TGI", "setting": "MDA-MB-435", "value": "> 100", "unit": "µM"}, {"measurement": "TGI", "setting": "K-562 leukemia", "value": "> 100", "unit": "µM"}, {"measurement": "TGI", "setting": "TK-10 renal", "value": "> 100", "unit": "µM"}, {"measurement": "TGI", "setting": "SNB-75 CNS", "value": "> 100", "unit": "µM"}, {"measurement": "TGI", "setting": "MDA-N", "value": "> 100", "unit": "µM"}, {"measurement": "TGI", "setting": "CAKI-1 renal", "value": "> 100", "unit": "µM"}, {"measurement": "TGI", "setting": "NCI-H522 lung", "value": "> 100", "unit": "µM"}, {"measurement": "TGI", "setting": "A498 renal", "value": "> 100", "unit": "µM"}, {"measurement": "TGI", "setting": "OVCAR-5 ovarian", "value": 80.9, "unit": "µM"}, {"measurement": "TGI", "setting": "BT-549 breast", "value": "> 100", "unit": "µM"}, {"measurement": "TGI", "setting": "RPMI-8226 leukemia", "value": "> 100", "unit": "µM"}, {"measurement": "TGI", "setting": "SR leukemia", "value": "> 100", "unit": "µM"}, {"measurement": "TGI", "setting": "OVCAR-3 ovarian", "value": "> 100", "unit": "µM"}, {"measurement": "TGI", "setting": "SK-MEL-2 melanoma", "value": "> 100", "unit": "µM"}, {"measurement": "TGI", "setting": "SW-620 colon", "value": "> 100", "unit": "µM"}, {"measurement": "TGI", "setting": "HOP-62 NSCLC", "value": "> 100", "unit": "µM"}, {"measurement": "TGI", "setting": "SK-MEL-28 melanoma", "value": "> 100", "unit": "µM"}, {"measurement": "TGI", "setting": "786-0 renal", "value": "> 100", "unit": "µM"}, {"measurement": "TGI", "setting": "HCC-2998 colon", "value": "> 100", "unit": "µM"}, {"measurement": "TGI", "setting": "HCT-15 colon", "value": "> 100", "unit": "µM"}, {"measurement": "TGI", "setting": "SN12C renal", "value": "> 100", "unit": "µM"}, {"measurement": "TGI", "setting": "HCT-116 colon", "value": 97.3, "unit": "µM"}, {"measurement": "TGI", "setting": "UACC-257 melanoma", "value": 68, "unit": "µM"}, {"measurement": "TGI", "setting": "OVCAR-4 ovarian", "value": "> 100", "unit": "µM"}, {"measurement": "TGI", "setting": "KM12 colon", "value": "> 100", "unit": "µM"}, {"measurement": "TGI", "setting": "LOX IMVI melanoma", "value": 75.9, "unit": "µM"}, {"measurement": "TGI", "setting": "UACC-62 melanoma", "value": "> 100", "unit": "µM"}, {"measurement": "TGI", "setting": "SK-MEL-5 melanoma", "value": 96.4, "unit": "µM"}, {"measurement": "TGI", "setting": "DU-145 prostate", "value": "> 100", "unit": "µM"}, {"measurement": "TGI", "setting": "IGROV1 ovarian", "value": "> 100", "unit": "µM"}, {"measurement": "TGI", "setting": "U251 CNS", "value": "> 100", "unit": "µM"}]}]}
